Measured values taken from ChEMBL document CHEMBL1201862, “PubChem BioAssay data set” (2004).
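Results reflect a 48-hour exposure of cells in 96-well plates to compound at five concentrations. Here, GI50 denotes the concentration required for 50% inhibition of growth.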 Activity calls are given as the source filed them. Cut-off read from the data, not from the text of the source: active = GI50 up to about 1.1 µM and inactive = higher.

Experiments:
Assay in all cases: DTP human tumour cell line panel, 48 h
COLO 205 = tested on: COLO 205
NCI-H460 = tested on: NCI-H460
K562 = tested on: K562
RXF 393 = tested on: RXF 393
LOX IMVI = tested on: LOX IMVI
SR = tested on: SR
HL-60 = tested on: HL-60
UACC-257 = tested on: UACC-257
Malme-3M = tested on: Malme-3M
HCC 2998 = tested on: HCC 2998
SK-MEL-5 = tested on: SK-MEL-5
SNB-75 = tested on: SNB-75
SK-MEL-28 = tested on: SK-MEL-28
MOLT-4 = tested on: MOLT-4
T47D = tested on: T47D
BT-549 = tested on: BT-549
MDA-MB-435 = tested on: MDA-MB-435
786-0 = tested on: 786-0
KM12 = tested on: KM12
NCI-H522 = tested on: NCI-H522

Row | Compound | GI50 (COLO 205) | GI50 (NCI-H460) | GI50 (K562) | GI50 (RXF 393) | GI50 (LOX IMVI) | GI50 (SR) | GI50 (HL-60) | GI50 (UACC-257) | GI50 (Malme-3M) | GI50 (HCC 2998) | GI50 (SK-MEL-5) | GI50 (SNB-75) | GI50 (SK-MEL-28) | GI50 (MOLT-4) | GI50 (T47D) | GI50 (BT-549) | GI50 (MDA-MB-435) | GI50 (786-0) | GI50 (KM12) | GI50 (NCI-H522)
1 | Nc1nc(N)c2c(n1)NC(=O)c1c(c3ccccc3n1Cc1ccc(Cl)cc1)C2 | 16 µM (inactive) | 18.2 µM (inactive) | 25.6 µM (inactive) | 15.5 µM (inactive) | 19.1 µM (inactive) | > 10 µM (inactive) | 18 µM (inactive) | 64.1 µM (inactive) | 55.3 µM (inactive) | 17.8 µM (inactive) | 15.3 µM (inactive) | 17.9 µM (inactive) | 49 µM (inactive) | 6.56 µM (inactive) | 16.8 µM (inactive) | 24.2 µM (inactive) | 18.8 µM (inactive) |  |  | 
2 | CC(C)=CCC/C(C)=C/CCC(C(=O)COCc1ccccc1)P1(=O)OC(C)(C)CN1C(C)(C)C (centres undefined) | 42.2 µM (inactive) | 52.2 µM (inactive) | 31.9 µM (inactive) | 87.5 µM (inactive) | 27.5 µM (inactive) | 21.8 µM (inactive) |  | 84.1 µM (inactive) |  |  | 47.6 µM (inactive) | 28.9 µM (inactive) | 62.1 µM (inactive) | 15.9 µM (inactive) | 31.8 µM (inactive) | > 100 µM (inactive) | 51.4 µM (inactive) | 48.3 µM (inactive) | 36 µM (inactive) | 32.6 µM (inactive)
3 | C=CCn1c(N)c(C#N)c(C#N)c1-c1ccccc1 | > 100 µM (inactive) |  | > 100 µM (inactive) | > 100 µM (inactive) | > 100 µM (inactive) | > 100 µM (inactive) | > 100 µM (inactive) | > 100 µM (inactive) | > 100 µM (inactive) | > 100 µM (inactive) | > 100 µM (inactive) | 26.2 µM (inactive) |  | > 100 µM (inactive) | > 100 µM (inactive) | > 100 µM (inactive) | > 100 µM (inactive) | > 100 µM (inactive) | > 100 µM (inactive) | > 100 µM (inactive)
4 | O=C(N/N=C/c1ccc2c(c1)OCO2)Nc1ccccc1Cl | 0.957 µM (active) | 0.65 µM (active) | 0.327 µM (active) | 1.57 µM (inactive) | 2.95 µM (inactive) | 0.22 µM (active) | 0.565 µM (active) | 2.23 µM (inactive) | 0.946 µM (active) | 0.361 µM (active) | 1.35 µM (inactive) |  | 9.95 µM (inactive) | 0.462 µM (active) | 2.08 µM (inactive) | 1.85 µM (inactive) | 0.171 µM (active) | 3.69 µM (inactive) | 0.598 µM (active) | 0.233 µM (active)
5 | COc1ccc(NCc2c(O)ccc3ccccc23)cc1 | 22.8 µM (inactive) | 49.9 µM (inactive) | 10.7 µM (inactive) | 16.5 µM (inactive) | 15.9 µM (inactive) | 17.1 µM (inactive) |  | 18.4 µM (inactive) | 20.7 µM (inactive) |  | 12.4 µM (inactive) | > 100 µM (inactive) | 27.4 µM (inactive) |  | 17.4 µM (inactive) | 18.6 µM (inactive) | 42.9 µM (inactive) | 16.4 µM (inactive) | 67.1 µM (inactive) | 14.8 µM (inactive)
6 | Nc1ncnc2c1N=C(c1ccccc1)CC(c1ccccc1)N2 (centres undefined) | > 100 µM (inactive) |  | > 100 µM (inactive) | > 100 µM (inactive) | > 100 µM (inactive) | > 100 µM (inactive) |  | > 100 µM (inactive) | > 100 µM (inactive) | > 100 µM (inactive) |  | 23.6 µM (inactive) | > 100 µM (inactive) | > 100 µM (inactive) | > 100 µM (inactive) | > 100 µM (inactive) | > 100 µM (inactive) | > 100 µM (inactive) | > 100 µM (inactive) | > 100 µM (inactive)
7 | Cc1cc(S(=O)(=O)NC2=NCCCN2)c(S)cc1Cl | 40.4 µM (inactive) | 39.3 µM (inactive) | 22.8 µM (inactive) | 66.2 µM (inactive) | 22.1 µM (inactive) | 21.2 µM (inactive) | 22.1 µM (inactive) | 37.5 µM (inactive) | 26.4 µM (inactive) | 36.1 µM (inactive) | 17.9 µM (inactive) | 42.3 µM (inactive) | 56.4 µM (inactive) |  | 25.2 µM (inactive) | 0.721 µM (active) | 18.3 µM (inactive) | 20.8 µM (inactive) | 37.8 µM (inactive) | 22 µM (inactive)
8 | C/C=C(\C)c1cc(=O)c2c(C)cc3c(c2o1)C(OC)(OC(C)=O)c1c(O)c(C2CC(C)(N(C)C)C(OC(C)=O)C(C)O2)cc(C2CC(N(C)C)C(OC(C)=O)C(C)O2)c1C3=O (centres undefined) | 1.24 µM (inactive) |  | 0.239 µM (active) | 1.37 µM (inactive) | 0.512 µM (active) | 0.0251 µM (active) |  | 1.55 µM (inactive) | 0.544 µM (active) | 0.0218 µM (active) | 1.51 µM (inactive) | 1.69 µM (inactive) | 3.77 µM (inactive) | 0.277 µM (active) | 3.74 µM (inactive) | 2.27 µM (inactive) | 1.52 µM (inactive) | 0.288 µM (active) | 1.14 µM (inactive) | 0.254 µM (active)
9 | CC1=C(C(N)=O)C(c2ccncc2)C(C#N)=C2SCC(=O)N12 (centres undefined) | > 100 µM (inactive) | > 100 µM (inactive) | > 100 µM (inactive) | > 100 µM (inactive) |  | > 100 µM (inactive) | > 100 µM (inactive) | > 100 µM (inactive) | > 100 µM (inactive) |  | > 100 µM (inactive) | > 100 µM (inactive) | > 100 µM (inactive) | > 100 µM (inactive) | > 100 µM (inactive) | > 100 µM (inactive) | > 100 µM (inactive) | > 100 µM (inactive) | > 100 µM (inactive) | > 100 µM (inactive)
10 | CC1(C)CCC(C)(C)c2c1ccc(O)c2Cc1c(O)ccc2c1C(C)(C)CCC2(C)C | 2.13 µM (inactive) | 2.47 µM (inactive) | 2.19 µM (inactive) | 1.87 µM (inactive) | 1.84 µM (inactive) | 2.7 µM (inactive) | 2.76 µM (inactive) | 1.85 µM (inactive) | 2.7 µM (inactive) |  | 1.87 µM (inactive) | 2.01 µM (inactive) | 2.12 µM (inactive) | 2.11 µM (inactive) | 1.87 µM (inactive) | 2.33 µM (inactive) | 1.87 µM (inactive) | 1.92 µM (inactive) | 1.95 µM (inactive) | 1.97 µM (inactive)
11 | O=c1cc(N2CCOCC2)oc2c(-c3ccccc3)cccc12 [LY-294002] | 13.5 µM (inactive) | 11.4 µM (inactive) | 14.2 µM (inactive) | 2.77 µM (inactive) | 3.72 µM (inactive) | 3.36 µM (inactive) | 14.7 µM (inactive) | 14.5 µM (inactive) | 0.286 µM (active) |  |  | 1.11 µM (active) | 16.9 µM (inactive) | 11.4 µM (inactive) | 2.49 µM (inactive) | 5.7 µM (inactive) | 7.8 µM (inactive) | 9.68 µM (inactive) | 12.1 µM (inactive) | 2.21 µM (inactive)
12 | CC(=N/N=C/c1ccccn1)/C(C)=N/N=C(C)/C(C)=N/N=C(C)/C(C)=N/N=C(C)/C(C)=N\N=C\c1ccccn1 | > 100 µM (inactive) | > 100 µM (inactive) | > 100 µM (inactive) | > 100 µM (inactive) | > 100 µM (inactive) | > 100 µM (inactive) | 49.1 µM (inactive) | > 100 µM (inactive) | > 100 µM (inactive) | > 100 µM (inactive) | > 100 µM (inactive) | > 100 µM (inactive) | > 100 µM (inactive) |  | > 100 µM (inactive) | > 100 µM (inactive) | > 100 µM (inactive) | > 100 µM (inactive) | > 100 µM (inactive) | > 100 µM (inactive)
13 | CN(Nc1cc(=O)[nH]c(=O)[nH]1)c1ccccc1 | > 100 µM (inactive) | > 100 µM (inactive) | > 100 µM (inactive) | > 100 µM (inactive) | > 100 µM (inactive) | > 100 µM (inactive) | > 100 µM (inactive) | > 100 µM (inactive) | > 100 µM (inactive) | > 100 µM (inactive) | > 100 µM (inactive) | 58.9 µM (inactive) | > 100 µM (inactive) | > 100 µM (inactive) | > 100 µM (inactive) | > 100 µM (inactive) | > 100 µM (inactive) | > 100 µM (inactive) | > 100 µM (inactive) | 
14 | O=C1CSC(c2c(O)ccc3ccccc23)N1n1c(S)nnc(/C=C/c2c(O)ccc3ccccc23)c1=O (centres undefined) |  | < 0.01 µM (active) | 0.521 µM (active) | 1.45 µM (inactive) | 1.44 µM (inactive) | 0.51 µM (active) | 0.232 µM (active) | 1.43 µM (inactive) | 2.22 µM (inactive) | 1.11 µM (active) |  | 1.5 µM (inactive) |  | 17.9 µM (inactive) | 0.59 µM (active) | 0.908 µM (active) | 0.966 µM (active) | 0.662 µM (active) |  | 1.14 µM (inactive)
15 | O=C(NCCO)c1ccc(Cl)cc1 |  | > 100 µM (inactive) | > 100 µM (inactive) | > 100 µM (inactive) | > 100 µM (inactive) | > 100 µM (inactive) |  | > 100 µM (inactive) | > 100 µM (inactive) | > 100 µM (inactive) | > 100 µM (inactive) | > 100 µM (inactive) | > 100 µM (inactive) | > 100 µM (inactive) | > 100 µM (inactive) | > 100 µM (inactive) | > 100 µM (inactive) | > 100 µM (inactive) | > 100 µM (inactive) | > 100 µM (inactive)
